Source: US8729030B2 (Affymax, Inc., priority 2003, dated 2014)
pEC50, pIC50: −log10 of the molar value. Bridges are numbered along the chain shown (N, C = ends). Where no end group is shown, it is not given here. [ ]: non-standard residue; d: D form. 1Nal = N[C@@H](Cc1cccc2ccccc12)C(=O)O; Sar = CNCC(=O)O

Tests used:
[1] = tested on: human, bone marrow derived CD34+ cells; assay: C/BFU-e assay (erythroid colony formation); format: cell-based; details: Table 2; colonies 90% of maximum relative to EPO control, 14 days
Text: EPO-R signaling stimulates the differentiation of bone marrow stem cells into proliferating red blood cell presursors. This assay measures the ability of test peptides to stimulate the proliferation and differentiation of red blood cell precursors from primary human bone marrow pluripotent stem cells.
For this assay, serial dilutions of test peptide are made in IMDM medium (Gibco) supplemented with 10% FBS (Hyclone). […] The methylcellulose and peptide mixture is then vortexed thoroughly. Aliquots (100,000 cells/mL) of human, bone marrow derived CD34+ cells (Poietics/Cambrex) are thawed. The thawed cells are gently added to 0.1 mL of 1 mg/ml DNAse (Stem Cells) in a 50 mL tube. Next, 40-50 mL IMDM medium is added gently to cells: the medium is added drop by drop along the side of the 50 mL tube for the first 10 mL, and then the remaining volume of medium is slowly dispensed along the side of the tube. The cells are then spun at 900 rpm for 20 min, and the media removed carefully by gentle aspiration. The cells are resuspended in 1 ml of IMDM medium and the cell density per mL is counted on hemacytometer slide (10 μL aliquot of cell suspension on slide, and cell density is the average count×10,000 cells/ml). The cells are then diluted in IMDM medium to a cell density of 15,000 cells/mL. A 100 μL of diluted cells is then added to each 1.5 mL methyl cellulose plus peptide sample (final cell concentration in assay media is 1000 cells/mL), and the mixture is vortexed. Allow the bubbles in the mixture to disappear, and then aspirate 1 mL using blunt-end needle. Add 0.25 mL aspirated mixture from each sample into each of 4 wells of a 24-well plate (Falcon brand). Incubate the plated mixtures at 37° C. under 5% CO2 in a humid incubator for 14 days. Score for the presence of erythroid colonies using a phase microscope (5×-10× objective, final magnification of 100×).
EPO-R signaling stimulates the differentiation of bone marrow stem cells into proliferating red blood cell precursors. […]

[2] = biological target: chimeric receptor comprising the extra-cellular portion of the human EPO receptor to the intra-cellular portion of the human GCSF receptor; assay: Reporter assay (Baf3/EpoR/GCSFR fos/lux luciferase); format: cell-based; details: Table 2; Baf3/EpoR/GCSFR fos/lux cells, 4 h
Text: This assay is based upon a on a murine pre-B-cell line derived reporter cell, Baf3/EpoR/GCSFR fos/lux. This reporter cell line expresses a chimeric receptor comprising the extra-cellular portion of the human EPO receptor to the intra-cellular portion of the human GCSF receptor. This cell line is further transfected with a fos promoter-driven luciferase reporter gene construct. Activation of this chimeric receptor through addition of erythropoietic agent results in the expression of the luciferase reporter gene, and therefore the production of light upon addition of the luciferase substrate luciferin. Thus, the level of EPO-R activation in such cells may be quantitated via measurement of luciferase activity.
The Baf3/EpoR/GCSFR fos/lux cells are cultured in DMEM/F12 medium (Gibco) supplemented with 10% fetal bovine serum (FBS; Hyclone), 10% WEHI-3 supernatant (the supernatant from a culture of WEHI-3 cells, ATCC #TIB-68), and penicillin/streptomycin. […] Following a 5-minute incubation, light emission is measured on a Packard Topcount Luminometer (Packard Instrument Co., Downers Grove, Ill.). Light counts are plotted relative to test peptide concentration and analysed using Graph Pad software. The concentration of test peptide that results in a half-maximal emission of light is recorded as the EC50 [See Table 2: Reporter EC50]. […]

EPO-R = biological target: T1, EPO-R (Homo sapiens, UniProt P19235); assay: Competitive binding assay (AlphaQuest bead proximity, AQ); details: Table 2; competition with biotinylated EPO-R-binding peptide tracer
T1 construct: made in house; host or cells: Chinese Hamster Ovary cells
T1 sequence (P19235 25-250 limits assumed): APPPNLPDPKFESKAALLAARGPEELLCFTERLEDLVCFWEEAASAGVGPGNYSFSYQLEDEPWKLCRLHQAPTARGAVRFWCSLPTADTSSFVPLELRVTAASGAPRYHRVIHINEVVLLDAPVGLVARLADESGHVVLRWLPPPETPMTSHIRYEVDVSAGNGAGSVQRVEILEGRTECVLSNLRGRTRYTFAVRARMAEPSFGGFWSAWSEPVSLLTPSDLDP
Text: Competitive binding calculations are made using an assay in which a light signal is generated as a function of the proximity of two beads: a streptavidin donor bead bearing a biotinylated EPO-R-binding peptide tracer and an acceptor bead to which is bound EPO-R. Light is generated by non-radiative energy transfer, during which a singlet oxygen is released from a first bead upon illumination, and contact with the released singlet oxygen causes the second bead to emit light. These bead sets are commercially available (Packard). Bead proximity is generated by the binding of the EPO-R-binding peptide tracer to the EPO-R. A test peptide that competes with the EPO-R-binding peptide tracer for binding to EPO-R will prevent this binding, causing a decrease in light emission.
In more detail the method is as follows: Add 4 μL of serial dilutions of the test EPO-R agonist peptide, or positive or negative controls, to wells of a 384 well plate. Thereafter, add 2 μL/well of receptor/bead cocktail. […]
Centrifuge 1 min to mix. […] After 18 hours read light emission using an AlphaQuest reader (Packard). […]

| EC90 [1] [nM] | pEC50 [2] | pIC50 (EPO-R) | Substance |
| --- | --- | --- | --- |
| 2.7 | 9.82 |  | peptide dimer of monomers (AcG)GLYACHMGPIT(1-nal)VCQPLR(MeG) (SEQ ID NO: 3) [Peptide III] (Ac-GGLYACHMGPIT[1Nal]VCQPLR[Sar]; disulfide 6-15 (inferred); not fully specified (residue 1); printed as (AcG)GLYACHMGPIT(1-nal)VCQPLR(MeG); also: homodimer, dimer linkage not given here) |
| 2.2 |  | 9.96 | peptide dimer of monomers (AcG)GLYACHMGPIT(1-nal)VCQPLR(MeG) (SEQ ID NO: 3) [Peptide II] (Ac-GGLYACHMGPIT[1Nal]VCQPLR[Sar]; disulfide 6-15 (inferred); not fully specified (residue 1); printed as (AcG)GLYACHMGPIT(1-nal)VCQPLR(MeG); also: homodimer, dimer linkage not given here) |
